Data on twelve molecules can be found in article PMC6005271.

A short description of data set [1]: Double Williamson ether macrocyclisation of preformed bipyridine precursor with a bis-electrophile, high dilution (previous syntheses). As to conditions: the molecule shown is the open-chain precursor; 25-membered ring; DMF; 72.0 h; cited from earlier work.
A short description of data set [2]: Ni-mediated reductive aryl-aryl (2-halopyridine) homo/cross-coupling forming the 2,2'-bipyridine C-C bond; [Ni(PPh3)2Br2] 1 eq, PPh3 2 eq, Mn 10 eq, NEt4I 1 eq; slow addition of dihalide over 4 h. As to conditions: DMF, 50.0 mM, 50.0 °C.

Take `Oc1ccc(-c2cccc(-c3cccc(CCCc4ccc(OCc5ccc(CBr)cc5)cc4)n3)n2)cc1`: the ring closure, isolated yield in data set [1] was 6%.
`c1cc2cc(c1)-c1cccc(n1)CCCc1ccc(cc1)OCCCCOc1ccc(cc1)COC2` [1i(Br) dibromo precursor -> 2i] returned a ring closure, isolated yield in data set [2] (from Brc1cccc(COCc2ccc(OCCCCOc3ccc(CCCc4cccc(Br)n4)cc3)cc2)c1, 26-membered ring) of 16%.
For `c1cc2nc(c1)-c1cccc(n1)CCCc1ccc(cc1)OCCCCOc1ccc(cc1)CCC2` [1a -> 2a], the ring closure, isolated yield in data set [2] (from Brc1cccc(CCCc2ccc(OCCCCOc3ccc(CCCc4cccc(Br)n4)cc3)cc2)n1, 26-membered ring, 5.0 h) turned out to be 71%.
In data set [2] (from Brc1cccc(CCCc2ccc(OCCCCCCCOc3ccc(-c4cccc(Br)n4)cc3)cc2)n1, 26-membered ring, 5.0 h), `c1cc2nc(c1)-c1cccc(n1)-c1ccc(cc1)OCCCCCCCOc1ccc(cc1)CCC2` [1g -> 2g (DMF-THF 3:1)] yielded a ring closure, isolated yield of 66%.
In data set [2] (from Brc1cccc(CCCc2ccc(OCCCCOc3ccc(COCc4cccc(I)c4)cc3)cc2)n1, 26-membered ring, 5.0 h), `c1cc2cc(c1)-c1cccc(n1)CCCc1ccc(cc1)OCCCCOc1ccc(cc1)COC2` gave a ring closure, isolated yield of 24%.
Molecule `c1cc2nc(c1)-c1cccc(n1)COCc1ccc(cc1)OCCCCOc1ccc(cc1)CCC2` [1f -> 2f] yielded a ring closure, isolated yield in data set [2] (from Brc1cccc(CCCc2ccc(OCCCCOc3ccc(COCc4cccc(Br)n4)cc3)cc2)n1, 26-membered ring, 5.0 h) of 76%.
`c1cc2nc(c1)-c1cccc(n1)-c1ccc(cc1)OCCOCCOCCOCCOc1ccc-2cc1` [1e -> 2e] displayed a ring closure, isolated yield in data set [2] (from Brc1cccc(-c2ccc(OCCOCCOCCOCCOc3ccc(-c4cccc(Br)n4)cc3)cc2)n1, 27-membered ring, 5.0 h) of 73%.
Molecule `c1cc2nc(c1)-c1cccc(n1)COCc1ccc(cc1)OCCCCCCCCCCOc1ccc(cc1)COC2` [1c -> 2c] came in with a ring closure, isolated yield in data set [2] (from Brc1cccc(COCc2ccc(OCCCCCCCCCCOc3ccc(COCc4cccc(Br)n4)cc3)cc2)n1, 32-membered ring, 5.0 h) of 67%.
As for `c1cc2nc(c1)-c1cccc(n1)COCc1ccc(cc1)OCCCCOc1ccc(cc1)COC2` [S4 (dichloro analogue of 1b) -> 2b], the ring closure, isolated yield in data set [2] (from Clc1cccc(COCc2ccc(OCCCCOc3ccc(COCc4cccc(Cl)n4)cc3)cc2)n1, 26-membered ring) turned out to be 56%.
In data set [2] (from Brc1cccc(COCc2ccc(OCCCCOc3ccc(COCc4cccc(Br)n4)cc3)cc2)n1, 26-membered ring, 5.0 h), `c1cc2nc(c1)-c1cccc(n1)COCc1ccc(cc1)OCCCCOc1ccc(cc1)COC2` [1b -> 2b] yielded a ring closure, isolated yield of 70%.
For the molecule `c1cc2nc(c1)-c1cccc(n1)-c1ccc(cc1)OCc1ccc(cc1)COc1ccc(cc1)CCC2`, in data set [2] (from Brc1cccc(CCCc2ccc(OCc3ccc(COc4ccc(-c5cccc(Br)n5)cc4)cc3)cc2)n1, 25-membered ring, 5.0 h), the ring closure, isolated yield is 41%.
Consider `c1cc2nc(c1)-c1cccc(n1)OCCc1ccc(cc1)OCCCCOc1ccc(cc1)CCO2`, for which the ring closure, isolated yield in data set [2] (from Brc1cccc(OCCc2ccc(OCCCCOc3ccc(CCOc4cccc(Br)n4)cc3)cc2)n1, 26-membered ring, 5.0 h) worked out at 65%.
